The values below come from patent publication US20240238378A1, “METHODS AND CCK-B RECEPTOR AGONISTS FOR TREATING TINNITUS” (City University of Hong Kong, priority 2023, published 2024).

Usually EC50 stands for the concentration that produces a half-maximal response. The term Tmax denotes the time at which the peak concentration occurs. What is called half-life is the time needed for the level to fall by half in the phase considered. A low value points to rapid decline.

One data set has as its target T1, CCKBR (Homo sapiens, UniProt P32239).
T1 construct: expressed in transfected cells; host or cells: CHO cells (CHO-CCKBR)
T1 sequence (P32239 1-447): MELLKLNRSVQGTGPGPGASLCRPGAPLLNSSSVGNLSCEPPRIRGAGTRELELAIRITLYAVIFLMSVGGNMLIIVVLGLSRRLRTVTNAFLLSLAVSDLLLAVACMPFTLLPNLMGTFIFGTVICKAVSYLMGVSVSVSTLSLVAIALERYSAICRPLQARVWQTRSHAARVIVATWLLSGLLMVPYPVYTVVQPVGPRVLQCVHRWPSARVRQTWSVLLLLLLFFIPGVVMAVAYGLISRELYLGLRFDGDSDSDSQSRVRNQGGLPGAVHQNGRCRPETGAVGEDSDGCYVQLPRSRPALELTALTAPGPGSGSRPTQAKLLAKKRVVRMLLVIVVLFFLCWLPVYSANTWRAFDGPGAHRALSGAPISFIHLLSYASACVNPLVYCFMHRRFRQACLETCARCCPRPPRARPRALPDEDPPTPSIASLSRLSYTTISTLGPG
The experiment in a line: Calcium response (Fluo-8 No Wash Calcium Assay Kit) in GPCR-overexpressing CHO cells. Type of data set: cell-based. The method, then:
In vitro screening system, HT-267 have been tested and measured calcium response by Fluo-8 No Wash Calcium Assay Kit in GPCRs overexpressed CHO cells, including CHO-CCKBR, CHO-CCKAR, CHO-HTR2B cells. These tests and measurements are performed as described in CN 113929737 A by Tortorella, et al., assigned to Regenerative Medicine and Health Innovation Centre Co., Ltd., et al., published on Jan. 14, 2022.

Data set [1] has as its system auditory thalamocortical pathway. Briefly: HFS-induced thalamocortical LTP in CCK-KO mice with infusion into ACx (fEPSP slope). In kind it is in vivo. As to conditions: HT-267 5 μM, 0.5 μl into ACx, n=6, p<0.0001, FIG. 5C. From the text:
The electrical stimulation is generated by an ISO-Flex isolator (A.M.P.I., Israel), which is controlled by a multifunction processor (RX6, TDT). The electrical current pulses for baseline test are 0.5 ms, 50-150 μA and presented every 10 s. The theta burst stimulation (TBS) contains four trails of 10 bursts at 5 Hz with the interval of 10 s between the trails, and each burst consists of 5 pulses at 100 Hz.
[…], two customized microelectrode arrays with four tungsten electrodes each, impedance: 0.5-1 MS2 (recording), and 200-500 kΩ (ES) (FHC, U.S.), are used for the auditory cortical neuronal activity recording and medial geniculate body ventral division (MGv) electrical stimulation and monitoring, respectively. […] 70 dB, 100 ms, noise bursts are presented every 10 s during the insertion of the electrode arrays, and neuronal activities are monitored as the electrode arrays are lowered until robust noise responses are achieved on both arrays. The final stimulating and recording positions are determined by maximizing the cortical field excitatory postsynaptic potential (fEPSP) amplitude triggered by the electrical stimulation in MGv.
The fEPSPs, which are elicited by 0.5 ms electrical current pulses, are amplified (×1000) and filtered (1 Hz-5 kHz), recorded with a 25 kHz sampling rate, and stored in a PC by OpenEx software (TDT). Before the recording, an input-output function is measured. […]

Data set [2] relates to noise-induced tinnitus mice. The experiment in a line: Tinnitus mouse model, gap pre-pulse inhibition of the acoustic startle reflex (GPIAS) with sound therapy. Type of data set: in vivo. As to conditions: 0.2 mg/kg intraperitoneal, one week (4 treatment days), combined with sound exposure; 12.6k, 16k, 20.1k, 28.7k Hz; FIGS. 6F-6I. The method, then: HT-267 is tested in the tinnitus mouse model. […] 7-9 weeks after tinnitus induction, more than 50% of mice developed tinnitus.
The inventors use the standard approach for assessing tinnitus in a rodent model, namely gap pre-pulse inhibition of the acoustic startle reflex (GPIAS) (FIGS. 2A-B). […] (Upper) Background sound and startle speakers are placed 10 and 13 cm respectively, from the point of microphone calibration. Signals from three force sensors placed under the testing tube in a triangular formation are averaged in a custom-made circuit and transmitted to TDT digital signal processor (DSP) for further analysis. (Lower) Timeline of a single GPIAS testing session. A GPIAS testing session consists of 3 blocks, lasting 36 minutes in total. The first block is the acclimation phase, lasting five minutes, where white noise is played from the “Cue” speaker for 5 minutes. Block two is the startle acclimation phase. To prevent outlier trials at the beginning of the testing session, 10 startle-only trials without any background sound are delivered to the animal. After block two, block three takes place, lasting 30 minutes. The 30 minute-long GPIAS session consisting of 300 individual trials (Five different background (BG) frequencies tested, for both GAP and NO_GAP conditions with 30 repeats for each BG frequency×GAP/NO_GAP condition pair). Each square represents one minute in the timeline. […]

Data set [3] concerns auditory thalamocortical pathway. Briefly: Thalamocortical LTP induction by CCK injection in the auditory cortex with low-frequency stimulation of MGv (fEPSP slope). In kind it is in vivo. The following applies: CCK 1 μM, 1 μl into ACx, n=8, p<0.001, FIG. 3E.
The mark [4] stands for this setting: elimination half-life (t1/2) in plasma.

On to `CSCCC(NC(=O)[C@H](N)Cc1c[nH]c2ccccc12)C(=O)N[C@@H](CC(=O)O)C(=O)N[C@@H](Cc1cccc(Br)c1)C(N)=O` (some centres unmarked) [HT-267], for which, at CCKBR (CHO-CCKBR cells), the EC50 was about 0.05 nM. The “receptor specificity of calcium response” value at CCKBR (CHO-CCKBR vs CHO-CCKAR and CHO-HTR2B cells, FIG. 1) is on record as “specifically activates CCKBR”. Moreover, in the data set “in vivo”, the Tmax is about 1.98 min, the blood-brain barrier passage result is recorded as “passes BBB easily” and the “uptake rate of brain” value is listed as “about 21.89%”. The half-life in the data set “in vivo” (setting [4]) is about 105 min. The half-life in “in vivo” (t1/2 in brain) was about 522 min. The “rescue of HFS-induced thalamocortical LTP (normalized fEPSP slope)” value in data set [1] is given as “abolished LTP could be rescued”. For the same compound, in data set [2], the “change of GPIAS ratio pre- vs post-treatment” value is recorded as “significantly reduces”.
Consider cholecystokinin [CCK], for which, in data set [3], the “normalized fEPSP slope after injection and LFS” value was “lead to an enhancement in fEPSP”.
Compound `CSCC[C@H](NC(=O)C(N)Cc1c[nH]c2ccccc12)C(=O)NC(CC(=O)O)C(=O)N[C@@H](Cc1ccccc1)C(N)=O` (some centres unmarked) [CCK-4, Cholecystokinin-4, reference compound] came in with a half-life in the data set “in vivo” (setting [4]) of about 13 min.
